Measured values: patent US20250333745A1, “METHODS AND COMPOSITIONS FOR TREATMENT OF POLYCYSTIC KIDNEY DISEASE” (Regulus Therapeutics Inc., priority 2016, published 2025)

Assays:
[1] = system: miR-17; test: microRNA polysome shift assay (miPSA), kidney target engagement; format: in vivo, mouse; design: miPSA Score Wild Type Mice / miPSA Score PKD Mice / miPSA displacement score (mean): scale not given here; conditions: for miPSA Kidney AUC (8 hours to 7 days) / Potency Kidney D7: wild-type mice, single s.c. dose 30 mg/kg; for Potency Kidney D7: day 7
Description: (§1) In vivo potency was evaluated using the microRNA polysome shift assay (miPSA). This assay was used to determine the extent to which compounds directly engage the miR-17 target in the kidney in normal and PKD mice. The miPSA relies on the principle that active miRNAs bind to their mRNA targets in translationally active high molecular weight (HMW) polysomes, whereas the inhibited miRNAs reside in the low MW (LMW) polysomes. Treatment with anti-miR results in a shift of the microRNA from HMW polysomes to LMW polysomes. Thus, the miPSA provides a direct measurement of microRNA target engagement by a complementary anti-miR (Androsavich et al., Nucleic Acids Research, 2015, 44: e13).
The miPSA was used to assess the potency of each compound, measured by the displacement score, in wild type and JCK mice. Tissue accumulation of anti-miR-17 compound was measured by extraction of compound using liquid-liquid extraction (LLE) and/or solid-phase extraction (SPE), followed by analysis of the identity and concentration of compound using ion-pairing-reversed-phase high performance liquid chromatography coupled with time-of-flight mass spectrometry (IP—RP-HPLC-TOF).
Wild type mice were administered a single dose of 3 mg/kg for the miPSA analysis, and a single dose of 30 mg/kg for the tissue accumulation analysis. JCK mice were administered a single dose of 30 mg/kg for both the miPSA and tissue accumulation analyses. Kidney tissue was collected seven days following the administration of anti-miR-17 compound. […] A higher kidney-to-liver ratio is generally preferred for a disease where the primary site of action is the kidney.
as §1, with “The” for “In vivo potency was evaluated using the”, “(miPSA),” for “(miPSA). This assay”, “identify” for “determine the extent to which”, “compounds that” for “compounds”, “engage” for “engage the”, “miR-17” for “miR-17 target”
For this experiment, the PKD model selected was the JCK model, a mouse model of slowly progressing renal cystic disease associated with the same gene that causes human nephronophthisis type 9. Renal cysts in this mouse develop in multiple regions of the nephron.
C57BL6 mice were treated with a single, subcutaneous dose of 0.3, 3, and 30 mg/kg of RG4326 or tool anti-miR-17 (described in Example 1). JCK mice were treated with a single, subcutaneous dose of 3, 30, and 100 mg/kg of RG4326 or tool anti-miR-17. PBS treatment was used as an additional control. At seven days post-treatment, mice were sacrificed, and kidney tissue was isolated for the miPSA. […] The displacement scores following treatment with RG4326 were greater than the displacement scores following treatment with the tool anti-miR-17 compound. The data for wild-type mice and JCK mice are also shown in FIG. 3A and FIG. 3B, respectively.
Pharmacokinetic behavior was assessed by administering a single subcutaneous 30 mg/kg dose of RG4326 or tool anti-miR-17 compound to wild-type mice. At one hour, four hours, eight hours, one day, seven days, 14 days, 28 days and 56 days following the single injection, mice were sacrificed and the mean concentration of anti-miR compound in kidney and liver tissue was measured (ug/g) as described above. The area-under-curve (AUC) was calculated for kidney and liver tissue using the formula ug*h/g, where ug is the amount of oligonucleotide in the tissue, h is the timepoint of tissue collection in hours, and g is the weight of the tissue. The ratio of kidney AUC to liver AUC was determined. Kidney tissue was also processed to the miPSA, to determine target engagement for each compound in this study. […]

[2] = Pharmacokinetic profile after single 30 mg/kg subcutaneous dose in wild-type mice; format: in vivo, mouse; conditions: single s.c. dose 30 mg/kg
Description: A full pharmacokinetic profile for selected compounds that have passed multiple screening criteria was obtained in C57BL6 mice. In one study, mice are administered a single subcutaneous injection of anti-miR-17 compound at 30 mg/kg. In another study, mice are administered three subcutaneous injections of anti-miR-17 compound at 39 mg/kg, over a two-month period. In each study, liver and kidney samples are collected at 1 hour, 4 hours, 8 hours, 1 day, 4 days, 7 days, 14 days, 28 days, and 56 days following injections.
Pharmacokinetic behavior was assessed by administering a single subcutaneous 30 mg/kg dose of RG4326 or tool anti-miR-17 compound to wild-type mice. At one hour, four hours, eight hours, one day, seven days, 14 days, 28 days and 56 days following the single injection, mice were sacrificed and the mean concentration of anti-miR compound in kidney and liver tissue was measured (ug/g) as described above. The area-under-curve (AUC) was calculated for kidney and liver tissue using the formula ug*h/g, where ug is the amount of oligonucleotide in the tissue, h is the timepoint of tissue collection in hours, and g is the weight of the tissue. The ratio of kidney AUC to liver AUC was determined. Kidney tissue was also processed to the miPSA, to determine target engagement for each compound in this study. PSA AUC was calculated using the formula Log2FC*h, where Log2FC is the displacement value, h is the timepoint of tissue collection in hours. Potency in the kidney at day 7 was calculated using the formula […] where Log2FC is the displacement value as determined by the miPSA, g is the weight of the kidney tissue, and ug is the amount of anti-miR in the kidney tissue at day seven.

[3] = system: miR-17 targets; test: De-repression of miR-17 targets in kidney cell types (PD Signature Score); format: cell-based, mouse
Description: The ability of RG4326 to de-repress miR-17 targets was also evaluated in additional kidney cell types, derived from the kidneys of both normal and PKD mice. Cells were treated with 30 nM of RG4326 or control oligonucleotide RG5124. After a 24-hour transfection period, cells were collected and RNA was extracted. The mRNA levels of 18 genes targeted by miR-17 were measured, and averaged to provide a pharmacodynamic signature score (PD Signature Score), represented as Log2 fold-change (Log2FC) relative to mock-transfection. […] “P<0.05” indicates a p-value of less than 0.05, as calculated by one-way ANOVA. “NS” indicates a change that is not statistically significant.

[4] = JCK mice, single subcutaneous 3 mg/kg, kidney, seven days
[5] = JCK mice, single subcutaneous 30 mg/kg, kidney, seven days
[6] = JCK mice, single subcutaneous 100 mg/kg, kidney, seven days
[7] = Normal (C57BL6) mice, single subcutaneous 0.3 mg/kg, kidney, seven days
[8] = Normal (C57BL6) mice, single subcutaneous 3 mg/kg, kidney, seven days
[9] = Normal (C57BL6) mice, single subcutaneous 30 mg/kg, kidney, seven days
[10] = DBA-PKD, Collecting Ducts, PKD kidney
[11] = DBA-WT, Collecting Ducts, Normal kidney
[12] = IMCD3, Collecting Ducts, Normal kidney
[13] = LTL-PKD, Proximal Tubules, PKD kidney
[14] = LTL-WT, Proximal Tubules, Normal kidney
[15] = M1, Collecting Ducts, Normal kidney
[16] = MDCT, Distal Tubules, Normal kidney

Compound | miPSA displacement score (mean) [1, 4] | miPSA displacement score (mean) [1, 5] | miPSA displacement score (mean) [1, 6] | miPSA displacement score (mean) [1, 7] | miPSA displacement score (mean) [1, 8] | miPSA displacement score (mean) [1, 9] | miPSA Kidney AUC (8 hours to 7 days) [1] [Log2FC * h] | Potency Kidney D7 [1] [Log2FC * g/ug] | KAUC/LAUC Ratio [2] | Kidney AUC (one hour to 56 days) [2] [µg·h/g] | Liver AUC (one hour to 56 days) [2] [µg·h/g] | PD-Signature Score (Log2FC @ 30 nM) [3, 10] | PD-Signature Score (Log2FC @ 30 nM) [3, 11] | PD-Signature Score (Log2FC @ 30 nM) [3, 12] | PD-Signature Score (Log2FC @ 30 nM) [3, 13] | PD-Signature Score (Log2FC @ 30 nM) [3, 14] | PD-Signature Score (Log2FC @ 30 nM) [3, 15] | PD-Signature Score (Log2FC @ 30 nM) [3, 16] | miPSA Score PKD Mice ([1]; JCK mice, single dose 30 mg/kg, kidney, seven days) | miPSA Score Wild Type Mice ([1]; wild type mice, single dose 3 mg/kg, kidney, seven days)
5′-CTGCACTGTAAGCACTTTG-3′ (all phosphorothioate, sugars by position and methylation of C not given here; DNA, 2'-MOE and S-cEt sugars) [Tool anti-miR-17, reference compound] | 0.97 | 1.67 | 2.08 | 1.51 | 2.05 | 2.77 | 296 | 0.047 | 1.0 | 20711 | 20275 |  |  |  |  |  |  |  |  | 
COC1C(OP(=O)(S)OC[C@H]2O[C@@H](n3cnc4c(N)ncnc43)C(F)C2OP(=O)(S)OC[C@H]2O[C@@H](n3ccc(N)nc3=O)C(F)C2OP(=O)(S)OC[C@H]2O[C@@H](n3ccc(=O)[nH]c3=O)C(F)C2OP(=O)(S)OC[C@H]2O[C@@H](n3ccc(=O)[nH]c3=O)C(OC)C2OP(=O)(S)OC[C@]23O[C@@H](n4ccc(=O)[nH]c4=O)C(O[C@H]2C)C3OP(=O)(S)OC[C@]23O[C@@H](n4cnc5c(=O)[nH]c(N)nc54)C(O[C@H]2C)C3O)[C@@H](COP(=O)(S)OC2C3O[C@@H](C)[C@]2(COP(=O)(S)OC2C4O[C@@H](C)[C@]2(CO)O[C@H]4n2cnc4c(N)ncnc42)O[C@H]3n2cnc3c(=O)[nH]c(N)nc32)O[C@H]1n1ccc(N)nc1=O (stereo in doubt) [RG4326, ASGSCMAFCFUFUMUSGS] | 1.63 | 2.58 | 2.73 | 2.29 | 2.91 | 3.19 | 463 | 0.351 | 4.4 | 5347 | 1206 | 0.52 ± 0.06; p < 0.05 Log2FC | 0.40 ± 0.09; p < 0.05 Log2FC | 0.57 ± 0.06; p < 0.05 Log2FC | 0.39 ± 0.01; p < 0.05 Log2FC | 0.35 ± 0.02; p < 0.05 Log2FC | 0.18 ± 0.18; p < 0.05 Log2FC | 0.10 ± 0.01; p < 0.05 Log2FC | 2.65 | 2.63
ASCSAMAFUFGFCMASCS [RG5124, reference compound] |  |  |  |  |  |  |  |  |  |  |  | −0.07 ± 0.02; ns Log2FC | 0.10 ± 0.05; ns Log2FC | −0.03 ± 0.05; ns Log2FC | −0.03 ± 0.04; ns Log2FC | −0.04 ± 0.02; ns Log2FC | −0.08 ± 0.02; ns Log2FC | 0.03 ± 0.01; ns Log2FC |  | 
